The test system of experiment [1] is farnesylated proteins F1, F2 and F3 in Met18b-2 cells. In words: Inhibition of intracellular farnesylation in intact Met18b-2 cells, Triton-soluble proteins F1, F2, F3. The format is cell-based, Chinese hamster. The conditions noted are these: Cricetulus griseus, read-out: EC 90% "B isomer". From the text: To study farnesylation in intact cells we used Met18b-2 cells, a line of Chinese hamster ovary (CHO) cells that takes up [3H]mevalonate efficiently (see Faust, J., and Krieger, M. J. Biol. Chem. 262, 1966 (1987)) owing to the production of a mevalonate transport protein (see Kim, C. M., Goldstein, J. L., Brown, M. S. J. Biol. Chem. 267, 23113 (1992)). The [3H]mevalonate is converted by the cells into [3H]farnesyl pyrophosphate and [3H]geranylgeranyl pyrophosphate, which are then attached to proteins (Kim, C. M., Goldstein, J. L., Brown, M. S. J. Biol. Chem. 267, 23113 (1992)). In the assay, stock cultures of Met18b-2 cells were seeded at a density of 3-105 cells per 60 mm dish in 3 ml of medium A (Dulbecco's modified Eagle medium/Ham's F12 medium (1:1, v/v) containing 100 U/ml penicillin and 100 μg/ml streptomycin) supplemented with 5% (v/v) fetal calf serum (FCS). On day 3, each monolayer was refed with 1 ml medium A supplemented with 1% FCS (dialyzed against 0.15 M NaCl). At this point the cells were treated with 100 μM compactin (see Brown, M. S., Faust, J. R., Goldstein, J. L., Kaneko, I., and Endo, A. J. Biol. Chem. 253, 1121 (1978)) which blocks the synthesis of unlabeled mevalonate within the cells. Each compound was dissolved at 25 mM in DMSO/10 mM DTT immediately before use and 10 μl of this solution added directly. After 2 hr incubation at 37° C., each monolayer received 100 μCi [3H]mevalonate (60 Ci/mmol, American Radiolabeled Chemicals, Inc.) added in 100 μl of the medium A, and the incubation continued for 4 hr. The cells were harvested by rinsing three times with 3 ml of 50 mM Tris-HCl/0.15 M NaCl (pH 7.5). 300 μl of lysis buffer (0.5X Dulbecco's phosphate-buffered saline containing 1% Triton X-100, 5 μg/ml leupeptin, 5 μg/ml pepstatin, 0.5 mM phenylmethylsulfonyl fluoride, and 0.05 U/ml aprotinin) was added to each monolayer. After incubation on ice for 5 mon, the lysates were centrifuged 30 sec in a microfuge at 12,000 g. The resulting supernatant was tranferred to a new tube, and each pellet was resuspended in 60 μl of lysis buffer. Protein concentrations were determined using the BCA protein assay reagent (Pierce) according to the manufacturer's instructions. Detergent-soluble (supernatant) and -insoluble (pellet) samples were mixed with 2X SDS sample buffer (see Laemmli, U. K. Nature 227, 680 (1970)) and heated at 95° C. for 5 min before electrophoresis. Each lane contained 90 μg protein, and was run on a 12.5% SDS-polyacrylamide gel. The gel was dried, treated with ENTENSIFY (NEN-DuPont), and exposed to Kodak XOMAT-AR film for 9 h at -80° C. to allow visualization of all prenylated proteins. Migration of [14C]methylated molecular weight standards (Amersham) were used as markers.
The results of this assay are shown in FIG. 3, using a final concentration of 250 μM for each inhibitor. […] As shown in the figure, none of the control peptides or control benzodiazepine-peptideomimetics altered the prenylation of proteins in intact cells.
Using the same cells and procedures followed above for Example 125, we measured the dose dependence upon the inhibition of farnesylation in intact cells. […] Compound 37B inhibited the famesylation of F1-3 detectably at 10 μM, and almost completely at 25 μM.
In this manner, it is possible to obtain data regarding the comparative potency of these inhibitors upon the level of intracellular farnesylation. We have chosen to report the EC90% values for these inhibitors as the concentration required for a reduction in the Triton- soluble labelling (denoted F-1, F-2, and F-3) to 90% of control cells (untreated).

In another experiment the target is CAAX farnesyltransferase (Rattus norvegicus, UniProt Q02293+Q04631). The experiment is described as follows: In vitro inhibition of CAAX farnesyltransferase. The format is biochemical. Also noted: purified to homogeneity from rat brain homogenates; from tissue; host or cells: rat brain; alternatively recombinant enzyme from a baculovirus expression system. Conditions: Table D. The method in brief: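 Native or recombinant (baculovirus-infected cells, Q-Sepharose purified) farnesyltransferase incubated 30 min at 37 °C. [3H]farnesyl transfer to p21H-ras measured by SDS/trichloroacetic acid precipitation, nitrocellulose filtration and scintillation counting.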
Sequence of CAAX farnesyltransferase (Q02293 whole entry, one chain of several): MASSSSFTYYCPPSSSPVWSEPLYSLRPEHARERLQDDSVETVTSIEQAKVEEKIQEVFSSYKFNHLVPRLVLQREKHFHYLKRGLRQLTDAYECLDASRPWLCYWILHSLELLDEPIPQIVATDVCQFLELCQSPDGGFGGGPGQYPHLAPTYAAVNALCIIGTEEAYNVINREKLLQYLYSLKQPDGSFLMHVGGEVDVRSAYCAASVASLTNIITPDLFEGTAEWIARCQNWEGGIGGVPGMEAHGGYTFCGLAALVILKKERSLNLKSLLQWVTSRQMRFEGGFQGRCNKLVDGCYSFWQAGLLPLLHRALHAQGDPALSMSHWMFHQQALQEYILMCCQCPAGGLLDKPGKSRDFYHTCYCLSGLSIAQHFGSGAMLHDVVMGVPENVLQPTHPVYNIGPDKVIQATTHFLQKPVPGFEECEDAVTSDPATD

[2] abbreviates: diastereomer A, read-out: EC50 (μM) "A".
The mark [3] stands for this setting: diastereomer B, read-out: EC50 (μM) "B".

Read-outs that look alike come from different tables or passages of the source. Where only a bound is given, the exact number is not on record here.

As to `CN(C(=O)[C@@H](N)CS)C1N=C(c2ccccc2)c2cc(Cl)ccc2N(Cc2ccc(C(F)(F)F)cc2)C1=O` (some centres unmarked) [compound 106, N-[[3-[(2-amino-3-mercapto-1-oxopropyl)methylamino]-2,3-dihydro-2-oxo-5-phenyl-7-chloro-1H-1,4-benzodiazepin-1-yl]methyl]-4-trifluoromethylbenzene], the EC90 in experiment [1] is 50000 nM. Further, the 50% effective concentration (EC50) (commonly the concentration that produces a half-maximal response) at CAAX farnesyltransferase (setting [2]) is 0.65 µM; on CAAX farnesyltransferase (setting [3]), 0.018 µM.

Turning to `CCOC(=O)[C@H](CCSC)NC(=O)CN1C(=O)C(N(C)C(=O)C2CSC(C)N2)N=C(c2ccccc2)c2ccccc21` (stereo partly drawn) [compound 109, N-[[3-[(2-methylthiazolidine-4-carboxyl)methylamino]-2,3-dihydro-2-oxo-5-phenyl-1H-1,4-benzodiazepin-1-yl]acetyl]-L-methionine ethyl ester], in experiment [1], the EC90 is 10000 nM. The EC50 at CAAX farnesyltransferase (setting [2]) was found to be 3.1 µM; on CAAX farnesyltransferase (setting [3]), 0.1 µM.

With `CSCC[C@H](NC(=O)CN1C(=O)C(N(C)C(=O)[C@@H](N)CSSC(C)(C)C)N=C(c2ccccc2)c2ccccc21)C(=O)OC1CCCCC1` (stereo partly drawn) [compound 112, N-[[3-[(2-amino-3-tert-butylthiomercapto-1-oxopropyl)methylamino]-2,3-dihydro-2-oxo-5-phenyl-1H-1,4-benzodiazepin-1-yl]acetyl]-L-methionine cyclohexyl ester], the EC90 in experiment [1] was found to be 4000 nM. On CAAX farnesyltransferase (setting [3]), the EC50 amounted to 0.2 µM.

Take `CN(C(=O)[C@@H](N)CSSC(C)(C)C)C1N=C(c2ccccc2)c2ccccc2N(CC(=O)N[C@@H](Cc2ccccc2)C(=O)OC2CCCCC2)C1=O` (stereo partly drawn) [compound 117, N-[[3-[(2-amino-3-tert-butylthiomercapto-1-oxopropyl)methylamino]-2,3-dihydro-2-oxo-5-phenyl-1H-1,4-benzodiazepin-1-yl]acetyl]-L-phenylalanine cyclohexyl ester]: the EC90 in experiment [1] is 3000 nM. Also, on CAAX farnesyltransferase (EC50 (μM) "B", diastereomer B), the EC50 came to 1.6 µM.

In the case of `COC(=O)c1cccc(CN2C(=O)C(N(C)C(=O)[C@@H]3CSC(C)N3)N=C(c3ccccc3)c3cc(Cl)ccc32)c1` (some centres unmarked) [compound 100, N-[[3-[(2-methylthiazolidine-4-carboxyl)methylamino]-2,3-dihydro-2-oxo-5-phenyl-7-chloro-1H-1,4-benzodiazepin-1-yl]methyl]-3-carboxymethylbenzene], the EC90 in experiment [1] worked out at 30000 nM. Further, the EC50 on CAAX farnesyltransferase (setting [2]) is 0.52 µM; at CAAX farnesyltransferase (setting [3]) it was 0.034 µM.

On to `CN(C(=O)[C@@H](N)CSSC(C)(C)C)C1N=C(c2ccccc2)c2cc(Cl)ccc2N(CC(=O)N[C@@H](Cc2ccccc2)C(N)=O)C1=O` (stereo partly drawn) [compound 115, N-[[3-[(2-amino-3-tert-butylthiomercapto-1-oxopropyl)methylamino]-2,3-dihydro-2-oxo-5-phenyl-7-chloro-1H-1,4-benzazepin-1-yl]acetyl]-L-phenylalanine amide], for which the EC90 in experiment [1] was 50000 nM. Also, the results for the EC50 at CAAX farnesyltransferase (setting [2]) and on CAAX farnesyltransferase (setting [3]) were > 3 µM and 0.1 µM, respectively.

As to `CN(C(=O)[C@@H](N)CS)C1N=C(c2ccccc2)c2cc(Cl)ccc2N(Cc2ccc(F)cc2)C1=O` (some centres unmarked) [compound 108, N-[[3-[(2-amino-3-mercapto-1-oxopropyl)methylamino]-2,3-dihydro-2-oxo-5-phenyl-7-chloro-1H-1,4-benzodiazepin-1-yl]methyl]-4-fluorobenzene], in experiment [1], the EC90 amounted to 50000 nM. Besides, the EC50 on CAAX farnesyltransferase (setting [2]) and on CAAX farnesyltransferase (setting [3]) was 0.0018 µM in each case.

For `CN(C(=O)[C@@H](N)CSSC(C)(C)C)C1N=C(c2ccccc2)c2cc(Cl)ccc2N(CC(=O)N[C@@H](Cc2ccccc2)c2nnn[nH]2)C1=O` (stereo partly drawn) [compound 119, N-[[3-[(2-amino-3-tert-butylthiomercapto-1-oxopropyl)methylamino]-2,3-dihydro-2-oxo-5-phenyl-7-chloro-1H-1,4-benzodiazepin-1-yl]acetyl]-L-phenylalanine tetrazole], the EC90 in experiment [1] worked out at 30000 nM. Also, the results for the half-maximal effective concentration (EC50) at CAAX farnesyltransferase (setting [2]) and on CAAX farnesyltransferase (setting [3]) were > 3 µM and 0.017 µM, respectively.

In the case of `CN(C(=O)[C@@H](N)CS)C1N=C(c2ccccc2)c2cc(Cl)ccc2N(Cc2ccc(C#N)cc2)C1=O` (some centres unmarked) [compound 101, N-[[3-[(2-amino-3-mercapto-1-oxopropyl)methylamino]-2,3-dihydro-2-oxo-5-phenyl-7-chloro-1H-1,4-benzodiazepin-1-yl]methyl]4-benzonitrile], the EC90 in experiment [1] came out at 20000 nM. Besides, the EC50 on CAAX farnesyltransferase (setting [2]) was 3 µM; at CAAX farnesyltransferase (setting [3]) it was 0.0009 µM.

`CC(C)C[C@H](NC(=O)CN1C(=O)C(N(C)C(=O)[C@@H](N)CSSC(C)(C)C)N=C(c2ccccc2)c2cc(Cl)ccc21)c1nnn[nH]1` (stereo partly drawn) [compound 114, N-[[3-[(2-amino-3-tert-butylthiomercapto-1-oxopropyl)methylamino]-2,3-dihydro-2-oxo-5-phenyl-7-chloro-1H-1,4-benzodiazepin-4-yl]acetyl]-L-leucine tetrazole]: the EC90 in experiment [1] came to 30000 nM. Also, the EC50 on CAAX farnesyltransferase (setting [3]) came to 0.12 µM.

Regarding `COC(=O)[C@H](CCSC)NC(=O)CN1C(=O)C(N(C)C(=O)[C@@H](N)CSSC(C)(C)C)N=C(c2ccccc2)c2ccccc21` (stereo partly drawn) [compound 110, N-[[3-[(2-amino-3-tert-butylthiomercapto-1-oxopropyl)methylamino]-2,3-dihydro-2-oxo-5-phenyl-1H-1,4-benzodiazepin-1-yl]acetyl]-L-methionine methyl ester], the EC90 in experiment [1] turned out to be 10000 nM. The concentration for a half-maximal effect (EC50) on CAAX farnesyltransferase (setting [2]) and on CAAX farnesyltransferase (setting [3]) was > 1.5 µM throughout.

As for `CSCC[C@H](NC(=O)CN1C(=O)C(N(C)C(=O)[C@@H](N)CSSC(C)(C)C)N=C(c2ccccc2)c2cc(Cl)ccc21)C(=O)OC1CCCCC1` (stereo partly drawn) [compound 111, N-[[3-[(2-amino-3-tert-butylthiomercapto-1-oxopropyl)methylamino]-2,3-dihydro-2-oxo-5-phenyl-7-chloro-1H-1,4-benzodiazepin-1-yl]acetyl]-L-methionine cyclohexyl ester], the EC90 in experiment [1] turned out to be 2000 nM. Further, the concentration for a half-maximal effect (EC50) at CAAX farnesyltransferase (setting [2]) was > 3 µM; on CAAX farnesyltransferase (setting [3]) it was 1.4 µM.

For the compound `COC(=O)c1cccc(CN2C(=O)C(N(C)C(=O)[C@@H](N)CSSC(C)(C)C)N=C(c3ccccc3)c3cc(Cl)ccc32)c1` (some centres unmarked) [compound 99, N-[[3-[(2-amino-3-tert-butylthiomercapto-1-oxopropyl)methylamino]-2,3-dihydro-2-oxo-5-phenyl-7-chloro-1H-1,4-benzodiazepin-1-yl]methyl]-3-carboxymethylbenzene], the EC90 in experiment [1] turned out to be 30000 nM. Also, the EC50 at CAAX farnesyltransferase (setting [3]) turned out to be 0.38 µM.

The values are drawn from US5843941A, “Ras farnesyl transferase inhibitors” (Genentech, Inc., priority 1994, dated 1998).
